PubChem BioAssay (NCI)
“And” between values parts separate entries of the source, which are not always exact repeats. Identical values can stand only once.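 Compound exposure: 48 hours, 5 concentrations, 96-well plates. Here, GI50 denotes the concentration required for 50% inhibition of growth. TGI: total growth inhibition.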

test system: CAKI-1 renal; assay: NCI anticancer screen, dose series, 48 h

Compound | TGI | GI50 [µM]
CCN1CN(c2ccccc2)C2(CCN(CC3COc4ccccc4O3)CC2)C1=O (stereo not given) | > 100 µM | 
C=C1C(=O)CC2C1CC(=O)/C(C)=C/CCC(C)(O)C2O (stereo not given) | 3.37 µM | 
O=C1C=C/C(=N\N=C(c2ccccc2)c2ccccc2)O1 | > 10 µM | 
C[C@H](CCC(=O)O)[C@H]1CC[C@H]2[C@@H]3C(=O)C[C@@H]4C[C@H](O)CC[C@]4(C)[C@H]3C[C@H](O)[C@]12C | > 100 µM | 
CC(=O)NC1C(OCc2ccccc2)OC(CO)C(O)C1OCC(=O)N[C@@H](C)C(=O)N[C@H](CCC(=O)NCCCNc1c2ccccc2nc2cccc([N+](=O)[O-])c12)C(N)=O (stereo not given in full) | 0.334 µM | 
O=C(O)c1ccccc1CC(Cc1ccc2c(c1)CCC2)C(=O)O (stereo not given) | > 100 µM | 
Cn1c(SCc2ccc(F)cc2)nnc1C12CC3CC(CC(C3)C1)C2 | > 100 µM | 
COC(=O)/C=C\C(C#N)(C#N)N=Cc1ccc(C)cc1 | 6.53 µM | 
CC(c1ccccc1)N1CCN(C(C)c2ccccc2)CC1 (stereo not given) | > 100 µM | 
COc1ccc(C(=O)/C=C/c2ccc(OCCCOc3ccc(/C=C/C(=O)c4ccc(OC)cc4)cc3)cc2)cc1 | > 100 µM | 
O=C(O)COc1ccccc1C(=O)Nc1ccccc1 | > 100 µM | 
COc1ccc(N2C(=O)CC(=O)N(NC(=O)C(C)Oc3ccccc3C)C2=S)cc1 (stereo not given) | > 100 µM | 
COc1ccc(C2c3cn[nH]c3CC3CCCCC32)cc1 (stereo not given) | 27.3 µM | 
C/C(=N\N=C1/C(=O)OC(c2ccccc2)=C1C(=O)c1ccccc1)c1ccc([N+](=O)[O-])cc1 | > 100 µM | 
O=S(=O)(O)C(CO)c1ccccc1 (stereo not given) (tested in a mixture with another compound) | > 100 µM | 
O=C1CC2(CCC(O)(c3ccc4ccccc4c3)C(C(=O)c3ccc4ccccc4c3)C2)C(=O)c2ccccc2N1 (stereo not given) | > 100 µM | 
Cc1nc(C)c(N2CCN([N+](=O)[O-])CC2)c(=O)[nH]1 | > 100 µM | 
Cc1nn(-c2ccccc2)c2c1C(c1cc3ccccc3nc1Cl)NC(=O)N2 (stereo not given) | > 100 µM | 
Cc1cc(/N=C/c2ccc(N(C)C)cc2)n(-c2ccccc2)n1 | > 100 µM | 
O=C(/C=C/c1ccccc1)Oc1ccc(C(=O)/C=C/c2ccccc2)cc1 | 19.8 µM | 
CCOC(=O)N1CCC(N[C@@H]2c3cc4c(cc3C(c3cc(OC)c(O)c(OC)c3)C3C(=O)OC[C@@H]32)OCO4)CC1 (stereo not given in full) | 2.35 µM and 2.26 µM | 

Compound | TGI | GI50 [µM]
NS(=O)(=O)c1ccc(NC(=S)/N=C/C2=C(O)c3ccccc3C2=O)cc1 | > 100 µM | 
O=C1NC2c3c(I)sc(I)c3C(O)C2O1 (stereo not given) | > 100 µM | 
CNc1cc2c(c3ccccc13)C(CCl)CN2C(=O)c1cc2cc(OC)c(OC)c(OC)c2[nH]1 (stereo not given) | 0.00431 µM and 0.022 µM | 
NCCCN1c2ccccc2Sc2ccc(Cl)cc21 | > 10 µM | 
CCOC(=O)c1cccc(N=Nc2nc[nH]c2/C=C/C(=O)OC)c1 | > 100 µM | 
O=C(O)CN1CCN2CCCCCN(CC1)CCN(CC(=O)O)CC2 | > 100 µM | 
Cc1cccc(C)c1NC(=O)C(Cc1c[nH]c2ccccc12)NC(=O)OCc1ccccc1 (stereo not given) | 50.2 µM | 
Clc1ccc(-c2nnc3sc4nc5ccccc5c-4nn23)c(Cl)c1 | > 100 µM | 
N#CC(C#N)=C1SC(=Nc2ccccc2)C(=Nc2ccccc2)N1c1ccccc1 | > 56.3 µM | 
Cc1ccc(C2=CC(=O)OC(C[P+](c3ccccc3)(c3ccccc3)c3ccccc3)(c3ccccc3)O2)cc1 (stereo not given) | 29.3 µM | 
Cc1ccc(S(=O)(=O)n2c3c(c4ccccc42)CCN2C[C@H]([C@H](C)Br)CC[C@@H]32)cc1 | > 100 µM | 
O=c1oc2cc(O)ccc2c(O)c1C(c1ccccc1)c1c(O)c2ccc(O)cc2oc1=O | > 100 µM | 
C[n+]1c(/C=C/c2c(O)ccc3ccccc23)ccc2ccccc21 | 12.3 µM | 5.39
O=C1c2cc(-c3ccccc3)cnc2S(=O)(=O)N1c1ccc(Br)cc1 | > 100 µM | 
O=C(NCP(=O)(Oc1ccccc1)Oc1ccccc1)OCc1ccccc1 | > 100 µM | 
COC1=CC(=O)c2c(c(-c3nc(C)cs3)cn2C)C1=O | 21.3 µM | 
C=CCn1c(=O)c(C(=O)Nc2nc(C34CC5CC(CC(C5)C3)C4)cs2)c(O)c2ccccc21 | > 100 µM | 
C=CCc1cc(-c2nc(=S)[nH][nH]2)ccc1N=NNc1ccc(C(=O)O)cc1 | > 100 µM | 
CC(C)SC(=S)Sc1c(Cl)c(Cl)nc(Cl)c1Cl | 8.49 µM | 
O=C(O)CN1CCNCCN(CC(=O)O)CCN(CC(=O)O)CCNCC1 | > 100 µM | 

test system: SK-MEL-28 melanoma; assay: NCI anticancer screen, dose series, 48 h

Compound | TGI [µM]
CCN1CN(c2ccccc2)C2(CCN(CC3COc4ccccc4O3)CC2)C1=O (stereo not given) | 87.3
C=C1C(=O)CC2C1CC(=O)/C(C)=C/CCC(C)(O)C2O (stereo not given) | 33.3
O=C1C=C/C(=N\N=C(c2ccccc2)c2ccccc2)O1 | > 10
C[C@H](CCC(=O)O)[C@H]1CC[C@H]2[C@@H]3C(=O)C[C@@H]4C[C@H](O)CC[C@]4(C)[C@H]3C[C@H](O)[C@]12C | > 100
CC(=O)NC1C(OCc2ccccc2)OC(CO)C(O)C1OCC(=O)N[C@@H](C)C(=O)N[C@H](CCC(=O)NCCCNc1c2ccccc2nc2cccc([N+](=O)[O-])c12)C(N)=O (stereo not given in full) | 0.751
O=C(O)c1ccccc1CC(Cc1ccc2c(c1)CCC2)C(=O)O (stereo not given) | > 100
Cn1c(SCc2ccc(F)cc2)nnc1C12CC3CC(CC(C3)C1)C2 | 86.2
COC(=O)/C=C\C(C#N)(C#N)N=Cc1ccc(C)cc1 | 19.8
